Active and inactive are the calls of the source. The rule behind the calls is not given here.
Tests used:
[1] = molecular target: Transcription factor p65 (Homo sapiens) (UniProt Q04206); test: Induction of NF-kappaB p65 nuclear translocation in HUVEC cells by immunostaining; format: cell-based
[2] = molecular target: Transcription factor p65 (Homo sapiens) (UniProt Q04206); test: Potentiation of TNF-alpha-induced NF-kappaB p65 nuclear translocation in HUVEC cells by immunostaining; format: cell-based

Chain of Transcription factor p65 (Homo sapiens) (Q04206 whole entry): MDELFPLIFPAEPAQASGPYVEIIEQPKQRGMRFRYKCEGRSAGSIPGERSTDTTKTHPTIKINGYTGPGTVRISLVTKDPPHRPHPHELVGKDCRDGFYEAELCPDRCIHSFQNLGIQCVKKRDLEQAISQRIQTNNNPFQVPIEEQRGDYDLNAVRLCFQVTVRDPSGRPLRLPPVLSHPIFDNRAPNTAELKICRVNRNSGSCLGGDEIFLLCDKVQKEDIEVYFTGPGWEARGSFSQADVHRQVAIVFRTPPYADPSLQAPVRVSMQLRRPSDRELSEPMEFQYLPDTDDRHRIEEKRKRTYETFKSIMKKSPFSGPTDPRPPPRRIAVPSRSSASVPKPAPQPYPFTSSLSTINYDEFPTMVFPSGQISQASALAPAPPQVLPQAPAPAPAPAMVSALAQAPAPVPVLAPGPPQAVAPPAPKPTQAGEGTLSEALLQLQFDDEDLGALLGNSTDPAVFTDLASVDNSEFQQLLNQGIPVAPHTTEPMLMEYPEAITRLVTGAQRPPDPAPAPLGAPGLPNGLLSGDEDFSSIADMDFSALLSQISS

Activity [1] | Activity [2] | SMILES
inactive | inactive | COc1ccc2nc(-c3cccs3)nc(NCCN3CCOCC3)c2c1
inactive | inactive | COc1ccc2nc(-c3cccs3)nc(NNS(=O)(=O)c3ccc(C)cc3)c2c1
inactive | inactive | COc1ccc2nc(-c3cccs3)nc(N3CCOCC3)c2c1
inactive | inactive | COc1ccc(CCNc2nc(-c3cccs3)nc3ccc(OC)cc23)cc1
inactive | inactive | COc1cccc2nc(-c3cccs3)nc(NN3C(=O)CC(C)C3=O)c12 (configuration not stated)
inactive | inactive | COc1ccc2nc(-c3cccs3)nc(NCc3ccccc3Cl)c2c1

Reference: ChEMBL document CHEMBL1136844, “Discovery of novel small molecule cell type-specific enhancers of NF-kappaB nuclear translocation” (Bioorg Med Chem Lett, 2009)
